{"source": "BindingDB's records for doi:10.1210/en.2002-221074", "about": "(National Institute of Diabetes and Digestive and Kidney …, 2003)", "key": {"[1]": {"target": "T1, Thyrotropin-releasing hormone receptor (Xenopus laevis, UniProt Q9DDR1)", "T1 sequence (Q9DDR1 whole entry)": "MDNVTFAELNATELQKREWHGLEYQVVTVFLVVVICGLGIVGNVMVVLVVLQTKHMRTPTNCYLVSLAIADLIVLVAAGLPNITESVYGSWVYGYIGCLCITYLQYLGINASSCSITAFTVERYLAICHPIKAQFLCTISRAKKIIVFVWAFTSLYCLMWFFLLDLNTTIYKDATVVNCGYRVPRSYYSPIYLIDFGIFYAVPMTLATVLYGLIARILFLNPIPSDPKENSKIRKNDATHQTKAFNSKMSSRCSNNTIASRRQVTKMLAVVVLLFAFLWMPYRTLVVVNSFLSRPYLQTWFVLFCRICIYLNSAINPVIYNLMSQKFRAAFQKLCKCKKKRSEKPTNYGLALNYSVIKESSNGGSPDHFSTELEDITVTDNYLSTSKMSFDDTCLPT"}, "[2]": {"target": "T2, Pro-thyrotropin-releasing hormone-B (Xenopus sp., UniProt Q00643)", "T2 sequence (Q00643 whole entry)": "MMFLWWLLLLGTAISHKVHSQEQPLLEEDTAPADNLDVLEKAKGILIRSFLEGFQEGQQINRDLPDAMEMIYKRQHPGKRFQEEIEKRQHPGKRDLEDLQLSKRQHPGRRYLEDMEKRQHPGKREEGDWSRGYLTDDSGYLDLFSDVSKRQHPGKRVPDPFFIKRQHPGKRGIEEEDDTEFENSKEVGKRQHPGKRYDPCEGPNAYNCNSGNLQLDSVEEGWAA"}, "[3]": {"target": "T3, Thyrotropin-releasing hormone receptor (Mus musculus, UniProt P21761)", "T3 sequence (P21761 whole entry)": "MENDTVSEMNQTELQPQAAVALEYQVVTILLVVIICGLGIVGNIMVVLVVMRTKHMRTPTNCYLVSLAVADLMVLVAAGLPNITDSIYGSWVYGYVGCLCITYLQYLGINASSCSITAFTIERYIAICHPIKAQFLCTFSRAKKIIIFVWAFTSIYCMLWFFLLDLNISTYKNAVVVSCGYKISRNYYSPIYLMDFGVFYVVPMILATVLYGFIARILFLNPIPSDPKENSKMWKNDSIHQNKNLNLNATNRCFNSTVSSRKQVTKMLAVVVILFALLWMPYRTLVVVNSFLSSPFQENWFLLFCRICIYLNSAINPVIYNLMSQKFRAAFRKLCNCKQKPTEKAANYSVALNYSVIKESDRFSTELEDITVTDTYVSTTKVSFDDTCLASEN"}}, "data": [{"smiles": "NC(=O)C1CCCN1C(=O)C(Cc1cnc[nH]1)NC(=O)C1CCC(=O)C1", "note": "(stereo not given) [Desaza1TRH]", "values": [{"measurement": "Ki", "setting": "[1]", "result": 3, "unit": "µM"}, {"measurement": "Ki", "setting": "[2]", "result": "> 10", "unit": "µM"}]}, {"smiles": "NC(=O)C1CCCN1C(=O)C(Cc1cnc[nH]1)NC(=O)[C@@H]1CCC(=O)C1", "note": "(stereo not given in full) [Pyr3TRH]", "values": [{"measurement": "Ki", "setting": "[3]", "result": "> 10", "unit": "µM"}, {"measurement": "Ki", "setting": "[1]", "result": "> 10", "unit": "µM"}, {"measurement": "Ki", "setting": "[2]", "result": "> 10", "unit": "µM"}]}]}
